Reference: patent publication US20080181866A1, “Amido Anti-viral Compounds” (Genelabs Technologies, Inc., priority 2006, published 2008)

Tested on: HCV replication
Experiment: HCV replicon assay (luciferase) in ET (Huh-lucubineo-ET) cell line
Type: cell-based
Conditions: Hepatitis C virus, tested at 5 μM; ET replicon cells; luciferase activity measured 48-72 hours later; relative to no compound control
Experimental: A cell line, ET (Huh-lucubineo-ET) was used for screening of compounds of the present invention for inhibiting HCV replication. The ET cell line was stably transfected with RNA transcripts harboring a I389luc-ubi-neo/NS3-3′/ET; replicon with firefly luciferase-ubiquitin-neomycin phosphotransferase fusion protein and EMCV-IRES driven NS3-5B polyprotein containing the cell culture adaptive mutations (E1202G; T12801; K1846T) (Krieger at al, 2001 and unpublished). The ET cells were grown in DMEM (Dulbeco's Modified Eagle's Medium), supplemented with 10% fetal calf serum, 2 mM Glutamine, Penicillin (100 IU/mL)/Streptomycin (100 μg/mL), 1× nonessential amino acids, and 250 μg/mL G418 (“Geneticin”). They were all available through Life Technologies (Bethesda, Md.). The cells were plated at 0.5-1.0×10^4 cells/well in the 96 well plates and incubated for 24 hrs before adding testing compounds. Then the compounds were added to the cells to achieve a final concentration of 0.1 nM to 50 μM and a final DMSO concentration of 0.5%. Luciferase activity were measured 48-72 hours later by adding a lysis buffer and the substrate (Catalog number Glo-lysis buffer E2661 and Bright-Glo luciferase system E2620 Promega, Madison, Wis.). Cells should not be too confluent during the assay. Percent inhibition of replication was plotted relative to no compound control. Under the same condition, cytotoxicity of the compounds was determined using cell proliferation reagent, WST-1 (Roche, Germany). The compounds showing antiviral activities, but no significant cytotoxicities were chosen to determine EC50 and TC50. For these determinations, a 10 point 2-fold serial dilution for each compound was used, which spans a concentration range of 1000 fold. EC50 and similarly TC50 values were calculated by fitting % inhibition at each concentration to the following equation:
% inhibition=100%/[(IC50/[I])^b+1]
where b is Hill's coefficient.
In some preferred embodiments compounds of Formula I will have a % inhibition of at least 20% when tested at 5 μM. In other embodiments the compounds of Formula I will have a % inhibition of at least 50% when tested at 5 μM.

Q: How did the inhibition at 5 µM turn out when CC(C)(C)OC(=O)N1CCCC(C2SC[C@@H](C(=O)Nc3nc(-c4ccc(C(=O)NC5CC5)cc4)cs3)N2C(=O)OCc2ccccc2)C1 (mixture of isomers) [Compound 7098, 3-{3-Benzyloxycarbonyl-4-[4-(4-cyclopropylcarbamoyl-phenyl)-thiazol-2-ylcarbamoyl]-thiazolidin-2-yl}-piperidine-1-carboxylic acid tert-butyl ester] was run?
A: 99.9%

Q: O=C(NCCN1CCOCC1)c1ccc(-c2csc(NC(=O)[C@@H]3COC4(CCOCC4)N3C(=O)OCc3ccccc3)n2)cc1 [Compound 7141, 3-{4-[4-(2-Morpholin-4-yl-ethylcarbamoyl)-phenyl]-thiazol-2-ylcarbamoyl}-1,8-dioxa-4-aza-spiro[4.5]decane-4-carboxylic acid benzyl ester] was tested. Which inhibition at 5 µM did it give?
A: 100%

Q: With O=C(NC1CC1)c1ccc(-c2csc(NC(=O)[C@@H]3CSC(c4ccnc5ccccc45)N3C(=O)OCc3ccccc3)n2)cc1 (mixture of isomers) [Compound 7007, (R)-4-[4-(4-Cyclopropylcarbamoyl-phenyl)-thiazol-2-ylcarbamoyl]-2-quinolin-4-yl-thiazolidine-3-carboxylic acid benzyl ester] as the molecule, how does the inhibition at 5 µM read?
A: 100%

Q: Which inhibition at 5 µM does the source give for O=C(Nc1ccccc1)[C@@H]1CSC(c2cccnc2)N1C(=O)OCc1ccccc1 (some centres unmarked) [Compound 7018, 4-Phenylcarbamoyl-2-pyridin-3-yl-thiazolidine-3-carboxylic acid benzyl ester] here?
A: 47.6%

Q: Which inhibition at 5 µM does the source give for Cn1ccnc1C1SC[C@@H](C(=O)Nc2nc(-c3ccc(C(=O)NC4CC4)cc3)cs2)N1C(=O)OCc1ccccc1 (mixture of isomers) [Compound 7053, (R)-4-[4-(4-Cyclopropylcarbamoyl-phenyl)-thiazol-2-ylcarbamoyl]-2-(1-methyl-1H-imidazol-2-yl)-thiazolidine-3-carboxylic acid benzyl ester] here?
A: 99.6%

Q: O=C(NC1CC1)c1ccc(NC(=O)[C@@H]2CSC(C3CCOCC3)N2C(=O)OCc2ccccc2)cc1 (some centres unmarked) [Compound 7107, 4-(4-Cyclopropylcarbamoyl-phenylcarbamoyl)-2-(tetrahydro-pyran-4-yl)-thiazolidine-3-carboxylic acid benzyl ester] was tested. Which inhibition at 5 µM did it give?
A: 10%

Q: O=C(NC1CC1)c1ccc(-c2csc(NC(=O)[C@@H]3CSC(c4cnco4)N3C(=O)OCc3ccccc3)n2)cc1 (mixture of isomers) [Compound 7036, (R)-4-[4-(4-Cyclopropylcarbamoyl-phenyl)-thiazol-2-ylcarbamoyl]-2-oxazol-5-yl-thiazolidine-3-carboxylic acid benzyl ester] was tested. Which inhibition at 5 µM did it give?
A: 99.8%

Q: Which inhibition at 5 µM does the source give for O=C(NC1CC1)c1ccc(-c2csc(NC(=O)[C@@H]3CSC(c4ccncc4)N3C(=O)OCc3ccccc3)n2)cc1 (mixture of isomers) [Compound 7031, (R)-4-[4-(4-Cyclopropylcarbamoyl-phenyl)-thiazol-2-ylcarbamoyl]-2-pyridin-4-yl-thiazolidine-3-carboxylic acid benzyl ester] here?
A: 99.8%

Q: For CC(C)(C)OC(=O)N1C(c2cccnc2)SC[C@H]1C(=O)Nc1nc(-c2ccc(C(=O)NC3CC3)cc2)cs1 (single isomer, unassigned) [Compound 7032, 4-[4-(4-Cyclopropylcarbamoyl-phenyl)-thiazol-2-ylcarbamoyl]-2-pyridin-3-yl-thiazolidine-3-carboxylic acid tert-butyl ester], which inhibition at 5 µM is on record?
A: 99.2%

Q: How did the inhibition at 5 µM turn out when O=C(Cc1ccc(NC(=O)[C@@H]2CSC(c3ccncc3)N2C(=O)OCc2ccccc2)cc1)NCc1ccccc1 (stereo in doubt) [Compound 7105, 4-[4-(Benzylcarbamoyl-methyl)-phenylcarbamoyl]-2-pyridin-4-yl-thiazolidine-3-carboxylic acid benzyl ester] was run?
A: 74.2%

Q: For O=C(Nc1nc(-c2ccccc2)cs1)[C@@H]1Cc2ccccc2N1C(=O)OCc1ccccc1 [Compound 7023, (S)-2-(4-Phenyl-thiazol-2-ylcarbamoyl)-2,3-dihydro-indole-1-carboxylic acid benzyl ester], which inhibition at 5 µM is on record?
A: 78.5%

Q: Which inhibition at 5 µM does the source give for CC1(c2ccncc2)SC[C@@H](C(=O)Nc2nc(-c3ccc(C(=O)NC4CC4)cc3)cs2)N1C(=O)OCc1ccccc1 (stereo in doubt) [Compound 7096, 4-[4-(4-Cyclopropylcarbamoyl-phenyl)-thiazol-2-ylcarbamoyl]-2-methyl-2-pyridin-4-yl-thiazolidine-3-carboxylic acid benzyl ester] here?
A: 99.9%

Q: For O=C(NC1CC1)c1ccc(-c2csc(NC(=O)[C@@H]3CSC4(CCCCC4)N3C(=O)OCc3ccccc3)n2)cc1 [Compound 7093, 3-[4-(4-Cyclopropylcarbamoyl-phenyl)-thiazol-2-ylcarbamoyl]-1-thia-4-aza-spiro[4.5]decane-4-carboxylic acid benzyl ester], which inhibition at 5 µM is on record?
A: 100%

Q: O=C(NC1CC1)c1ccc(-c2csc(NC(=O)[C@@H]3CSC(CC4CCOCC4)N3C(=O)OCc3ccccc3)n2)cc1 (mixture of isomers) [Compound 7004, (R)-4-[4-(4-Cyclopropylcarbamoyl-phenyl)-thiazol-2-ylcarbamoyl]-2-(tetrahydro-pyran-4-ylmethyl)-thiazolidine-3-carboxylic acid benzyl ester] was tested. Which inhibition at 5 µM did it give?
A: 99.9%

Q: With COC(=O)CCCCC1SC[C@@H](C(=O)Nc2nc(-c3ccc(C(=O)NC4CC4)cc3)cs2)N1C(=O)OCc1ccccc1 (some centres unmarked) [Compound 7108, 4-[4-(4-Cyclopropylcarbamoyl-phenyl)-thiazol-2-ylcarbamoyl]-2-(4-methoxycarbonyl-butyl)-thiazolidine-3-carboxylic acid benzyl ester] as the molecule, how does the inhibition at 5 µM read?
A: 99.9%

Q: Which inhibition at 5 µM does the source give for COC(=O)c1ccc(C2SC[C@@H](C(=O)Nc3nc(-c4ccc(C(=O)NC5CC5)cc4)cs3)N2C(=O)OCc2ccccc2)cc1 (mixture of isomers) [Compound 7051, (R)-4-[4-(4-Cyclopropylcarbamoyl-phenyl)-thiazol-2-ylcarbamoyl]-2-(4-methoxycarbonyl-phenyl)-thiazolidine-3-carboxylic acid benzyl ester] here?
A: 99.4%

Q: Which inhibition at 5 µM does the source give for O=C(Cc1ccc(NC(=O)[C@@H]2CSC(c3ccncc3)N2C(=O)OCc2ccccc2)cc1)NCCc1ccccc1 (some centres unmarked) [Compound 7119, 4-[4-(Phenethylcarbamoyl-methyl)-phenylcarbamoyl]-2-pyridin-4-yl-thiazolidine-3-carboxylic acid benzyl ester] here?
A: 1.2%

Q: With O=C(Nc1cccnc1)c1ccc(-c2csc(NC(=O)[C@@H]3COC4(CCOCC4)N3C(=O)OCc3ccccc3)n2)cc1 [Compound 7140, 3-{4-[4-(Pyridin-3-ylcarbamoyl)-phenyl]-thiazol-2-ylcarbamoyl}-1,8-dioxa-4-aza-spiro[4.5]decane-4-carboxylic acid benzyl ester] as the molecule, how does the inhibition at 5 µM read?
A: 99.9%

Q: For O=C(NC1CC1)c1ccc(-c2csc(NC(=O)[C@@H]3CSC(c4ncco4)N3C(=O)OCc3ccccc3)n2)cc1 (mixture of isomers) [Compound 7056, (R)-4-[4-(4-Cyclopropylcarbamoyl-phenyl)-thiazol-2-ylcarbamoyl]-2-oxazol-2-yl-thiazolidine-3-carboxylic acid benzyl ester], which inhibition at 5 µM is on record?
A: 99.9%

Q: Cc1cccc2[nH]c(Cc3ccc(NC(=O)[C@@H]4CSC(c5ccncc5)N4C(=O)OCc4ccccc4)cc3)nc12 (some centres unmarked) [Compound 7084, 4-[4-(4-Methyl-1H-benzoimidazol-2-ylmethyl)-phenylcarbamoyl]-2-pyridin-4-yl-thiazolidine-3-carboxylic acid benzyl ester] was tested. Which inhibition at 5 µM did it give?
A: 14.2%
